Read-outs that look alike come from different tables or passages of the source.

Experimental findings from patent publication US20120309728A1, “NEW STEROID INHIBITORS OF PGP FOR USE FOR INHIBITING MULTIDRUG RESISTANCE” (priority 2009, published 2012) are described below.

For one data set, the system named is R7 cells xenograft. Put plainly: In vivo efficiency in SCID mice xenografted with R7 cells. An excerpt:
(§1) FIGS. 7 and 8 represent the tumour volume of mice treated with vehicle ([…]), doxorubicin (∘), compound (33) alone (▾), and compound (33) with doxorubicin (Δ). The tumor volume is indicated as a function of days. FIG. 7 concerns mice xenografted with H295R cells and FIG. 8 concerns mice xenografted with R7 cells (the arrow indicates the beginning of treatment of mice).
(§2) For each xenograft, four groups of five mice developing a tumour in both flanks were employed. Group 1 received vehicle alone, group 2 received DOXO (1.5 mg/kg/mouse+vehicle), group 3 received (33) derivative (10 mg/kg/mouse solubilised with vehicle) and group 4 received DOXO+derivative.

Data set [1] deals with K562/R7 cells. Nature of the data set: Cytotoxicity assay using MTT reagent, with doxorubicin plus steroid modulator. In kind it is cell-based, human. The following applies: doxorubicin 10^−6M + steroid modulator 10^−6M, 72 h. The protocol: Doxorubicin at 10^−6 M was then added to each well. After incubation for 72 h, 20 μL of MTT reagent (5 mg/mL in PBS buffer) were added to each well and the plate was further incubated for 4 h at 37° C., allowing viable cells to change the yellow MTT into dark-blue formazan crystals. Supernatants were carefully discarded and 100 μL of isopropanol containing 10% HCL 1M were added to dissolve the formazan crystals. Absorbance in each well was determined at 570 nm using a microplate reader (MultisKan EX, Thermo Electron). […] At least three different experiments were performed. Results were expressed as the percentage of surviving cells in each well compared to untreated cells.

Another data set concerns resistant R7 cells. Put plainly: Reversion of chemoresistance to doxorubicin by steroid modulators (modulation of IC50 for doxorubicin). In kind it is cell-based, human. The note with it: in vitro, cyclosporine A in the same conditions. The protocol:
FIGS. 3 and 4 represent the effects of compounds of the invention (steroid modulators) on chemosensitization of resistant R7 cells to doxorubicin (DOXO), evaluated by [^3H]thymidine incorporation. Resistant R7 cells were incubated for 24 hours with increasing concentrations of doxorubicinin the absence (∘) or in the presence of said steroid modulators. As a control, the sensitive K562 cells were incubated with the same concentrations of doxorubicin ([…]).
Sensitive parental K562 cells were also treated with the same increasing concentrations of DOXO (from 10^−8 to 10^−4 M) in the absence of steroids, as a control.

The subject of data set [2] is H295R cells. Put plainly: Cytotoxicity assay using [^3H]thymidine incorporation in surviving cells, with doxorubicin plus steroid modulator. The following applies: comment on Table 2, both value columns. In kind it is cell-based, human. As for the experimental part:
Doxorubicine (DOXO) at 10^−6 M was added shortly thereafter to each well. […] Finally the precipitate was solubilized by addition of 300 μL of a solution of sodium deoxycholate (4% in NaOH 0.5 M) (O. Joly-Pharaboz et al., J Steroid Biochem. Mol. Biol. 73 (2000) 237-249). Radioactivity was measured (Tri-Carb 1900 CA, Packard) after addition of liquid scintillation cocktail (Perkin Elmer, Courtaboeuf, France). […] At least three different experiments were performed for each cell type.
A general note: Uptake of a labelled nucleoside into DNA is a usual measure of proliferation.

For a further data set, the system named is H295R cells xenograft. Put plainly: In vivo efficiency in SCID mice xenografted with H295R cells.
Text: as §1, §2

The subject of another data set is R7 cells. Put plainly: Intracellular accumulation of daunorubicin measured by flow cytometry. In kind it is cell-based, human. The following applies: daunorubicin 10 μM, compound 10 μM, 1 h at 37° C. As for the experimental part:
The accumulation of daunorubicin in the presence of steroid modulators according to the invention, i.e. compounds having formula (I), was measured by flow cytometry using a reported procedure (G. Comte et al, J. Med. Chem., 44: 763-768, 2001). K562 or R7 cells ([…]) were incubated for 1 h at 37° C. with 1 mL RPMI 1640 medium containing daunorubicin at 10 μM, in the presence or absence of compounds of the invention (10 μM). The cells were then washed twice with ice-cold PBS and kept on ice until analysis by flow cytometry on a FACS-II (Becton-Dickinson Corp., Mountain View, Calif.). Assays were performed in duplicate, in at least three separate experiments.
Background: A flow cytometer gives signals particle by particle.

In data set [3] the test system is K562/R7 cells. Nature of the data set: Determination of IC50 for cytotoxics ([^3H]thymidine incorporation). The protocol: (§3) After treatment, the number of surviving cells was evaluated by the incorporation of [^3H]thymidine as described above.
Data set [4] deals with H295R cells. Nature of the data set: cells. As for the experimental part: as §3
The mark [5] stands for this setting: DOXO 1.5 mg/kg/mouse + derivative 10 mg/kg/mouse (group 4) versus groups 1, 2 and 3.
Where [6] appears, read: DOXO + derivative (group 4), 40 days of treatment.

Take `CC(=O)C1CCC2C3C([C@H](OC4CCCCO4)C[C@]12C)[C@@]1(C)CCC(=O)C[C@H]1C[C@H]3OC(=O)c1ccccc1` (stereo partly drawn) [Compound 33, 7α-Benzoyloxy-11α-O-[2′(R)]tetrahydropyranyl-oxy(5β)pregnane-3,20-dione]: the development of tumour entry in the data set on R7 cells xenograft (setting [5]) and with H295R cells xenograft (setting [5]) was “delay in the development of tumour” each time. The survival time entry in the data set on R7 cells xenograft (DOXO + derivative (group 4)) and in the data set with H295R cells xenograft (DOXO + derivative (group 4)) was “longer survival time” in each case. Also, the tumour volume entry in the data set with R7 cells xenograft (setting [6]) was “remains low and stable”; in the data set on H295R cells xenograft (setting [6]), “remains low and stable”. Further, the “Surviving cells R7 cells (% untreated cells)” value with K562/R7 cells [1] was 1.5 ± 0.9 % untreated cells. For the same compound, the “potency relative to cyclosporine A in decreasing IC50 for doxorubicin” value with resistant R7 cells was 10 fold. Further, in the data set on H295R cells [2], the “activity to increase the cytotoxicity of doxorubicin (in words)” value is recorded as “activity similar to cyclosporine A”.

`CC(=O)[C@@]1(OC2CCCCO2)CCC2C3CC[C@@H]4CC(=O)CC[C@]4(C)C3[C@H](OC3CCCCO3)C[C@@]21C` (stereo partly drawn) [Compound 51, 11α,17α-Bis-O-[2′(S),2′(R)]tetrahydropyranyloxy(5β)pregnane-3,20-dione]: the Daunorubicin accumulation with R7 cells is given as 68.02 ± 15.6 % of the accumulation measured in the presence of cyclosporine A. For the same compound, the “potency relative to cyclosporine A in decreasing IC50 for doxorubicin” value in the data set on resistant R7 cells was 10 fold.

On to `COC(=O)CC[C@@H](C)C1CCC2C3C[C@H](OC4CCCCO4)[C@@H]4CC(=O)CCC4(C)C3CCC21C` (stereo partly drawn) [Compound 210, Methyl 3-oxo-6α-O-[2′(R+S)]tetrahydropyranyloxycholanate], for which, in the data set with R7 cells, the Daunorubicin accumulation is 66.7 ± 1.8 % of the accumulation measured in the presence of cyclosporine A. Moreover, the “Surviving cells R7 cells (% untreated cells)” value in the data set with K562/R7 cells [1] is 4.1 ± 1.1 % untreated cells.

`COc1cc2c(c(OC)c1OC)-c1ccc(OC)c(=O)cc1[C@@H](NC(C)=O)CC2` [colchicine]: the “resistance of the cells to the cytotoxic drug (in words)” value (“resistance of the cells” for short) with K562/R7 cells [3] (R7 cells, 24 h treatment) is recorded as “resistant”.

Consider `COc1cccc2c1C(=O)c1c(O)c3c(c(O)c1C2=O)C[C@@](O)(C(=O)CO)C[C@@H]3O[C@H]1C[C@H](N)[C@H](O)[C@H](C)O1` [doxorubicin], for which the IC50 with K562/R7 cells [3] (Homo sapiens, K562/R7, 24 h, read-out: IC50 of cytotoxic drug (concentration inhibiting cell growth by 50%)) worked out at 63.6 µM; with H295R cells [4] (Homo sapiens, NCI-H295R, 24 h, read-out: IC50 of cytotoxic drug (concentration inhibiting cell growth by 50%)), 20.6 µM.

Regarding `O=C1c2c(O)ccc(O)c2C(=O)c2c(NCCNCCO)ccc(NCCNCCO)c21` [mitoxantrone], the “resistance of the cells” value in the data set with K562/R7 cells [3] and in the data set on H295R cells [4] was “resistant” in each case.

Consider `CC[C@]1(O)C[C@@H]2CN(CCc3c([nH]c4ccccc34)[C@@](C(=O)OC)(c3cc4c(cc3OC)N(C)[C@H]3[C@@](O)(C(=O)OC)[C@H](OC(C)=O)[C@]5(CC)C=CCN6CC[C@]43[C@@H]65)C2)C1` [vinblastine], for which the “resistance of the cells” value in the data set on K562/R7 cells [3] is reported as “resistant”.

For `CCC1=C[C@@H]2CN(C1)Cc1c([nH]c3ccccc13)[C@@](C(=O)OC)(c1cc3c(cc1OC)N(C)[C@H]1[C@@](O)(C(=O)OC)[C@H](OC(C)=O)[C@]4(CC)C=CCN5CC[C@]31[C@@H]54)C2` [vinorelbine], the “resistance of the cells” value in the data set on H295R cells [4] is “resistant”.
